Results from patent US9096560B2, “5-heterocyclylalkyl-3-hydroxy-2-phenylcyclopent-2-enones as herbicides” (Syngenta Limited, priority 2008, dated 2015).

How the values were obtained:
Assay type in all cases: in vivo
[1] = test system: Echinochloa crus-galli (ECHCG); assay: Example B pre-emergence herbicidal test, ECHCG; conditions: Echinochloa crus-galli, 312 h, rate 250 g/ha, evaluated after 13 days, 100=total damage to plant, 0=no damage to plant
In short: (§1)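 After sowing in standard soil, pots spent a day in the glasshouse (24/16° C, 14 h photoperiod, 65% humidity) before spraying with compound in acetone/water 50:50 with 0.5% Tween 20. Watering followed twice a day, and plants were evaluated 13 days on, with 100 meaning complete damage.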

Avena fatua (AVEFA) [2] = assay: Example B post-emergence herbicidal test, AVEFA; conditions: Avena fatua, 312 h, rate 250 g/ha, evaluated after 13 days, scale 0-100, read-out: Post-emergence activity AVEFA (100=total damage to plant; 0=no damage to plant)
In short: (§2)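 Score: 0 = no damage, 100 = total damage, assessed 13 days post-spray. Plants sprayed 8 days after sowing with aqueous dilution of acetone/water (50:50) formulation containing 0.5% Tween 20.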

Lolium perenne (LOLPE) [3] = assay: Example B pre-emergence herbicidal test, LOLPE; conditions: Lolium perenne, 312 h, rate 250 g/ha, evaluated after 13 days, 100=total damage to plant, 0=no damage to plant
In short: as §1

[4] = test system: Echinochloa crus-galli (ECHCG); assay: Example B post-emergence herbicidal test, ECHCG; conditions: Echinochloa crus-galli, 312 h, rate 250 g/ha, evaluated after 13 days, scale 0-100, read-out: Post-emergence activity ECHCG (100=total damage to plant; 0=no damage to plant)
In short: as §2

Avena fatua (AVEFA) [5] = assay: Example B pre-emergence herbicidal test, AVEFA; conditions: Avena fatua, 312 h, rate 250 g/ha, evaluated after 13 days, 100=total damage to plant, 0=no damage to plant
In short: as §1

Lolium perenne (LOLPE) [6] = assay: Example B post-emergence herbicidal test, LOLPE; conditions: Lolium perenne, 312 h, rate 250 g/ha, evaluated after 13 days, scale 0-100, read-out: Post-emergence activity LOLPE (100=total damage to plant; 0=no damage to plant)
In short: as §2

[7] = test system: Alopecurus myosuroides (ALOMY); assay: Example B post-emergence herbicidal test, ALOMY; conditions: Alopecurus myosuroides, 312 h, rate 250 g/ha, evaluated after 13 days, scale 0-100, read-out: Post-emergence activity ALOMY (100=total damage to plant; 0=no damage to plant)
In short: as §2

[8] = test system: Alopecurus myosuroides (ALOMY); assay: Example B pre-emergence herbicidal test, ALOMY; conditions: Alopecurus myosuroides, 312 h, rate 250 g/ha, evaluated after 13 days, 100=total damage to plant, 0=no damage to plant
In short: as §1

Row | SMILES | pest or weed control at 250 g/ha [1] | pest or weed control at 250 g/ha (Avena fatua (AVEFA) [2]) | pest or weed control at 250 g/ha (Lolium perenne (LOLPE) [3]) | pest or weed control at 250 g/ha [4] | pest or weed control at 250 g/ha (Avena fatua (AVEFA) [5]) | pest or weed control at 250 g/ha (Lolium perenne (LOLPE) [6]) | pest or weed control at 250 g/ha [7] | pest or weed control at 250 g/ha [8]
1 | CCCCC(=O)N1CCC(CC2CC(=O)C(c3c(C)cc(C)cc3C)C2=O)CC1 (centres unmarked) [Compound T85] | 30% | 90% | 60% | 80% | 20% | 90% | 90% | 60%
2 | Cc1cc(C)c(C2C(=O)CC(CC3CCN(C(=O)OCC(Cl)(Cl)Cl)CC3)C2=O)c(C)c1 (centres unmarked) [Compound T86] | 50% | 80% | 100% | 80% | 30% | 70% | 40% | 60%
3 | Cc1cc(C)c(C2C(=O)CC(CC3CCN(C(=O)C(C)Cl)CC3)C2=O)c(C)c1 (centres unmarked) [Compound T87] | 60% | 90% | 100% | 70% | 90% | 90% | 70% | 90%
4 | Cc1cc(C)c(C2C(=O)CC(CC3CCN(C(=O)C4CCCCC4)CC3)C2=O)c(C)c1 (centres unmarked) [Compound T89] | 60% | 20% | 70% | 40% | 10% | 40% | 30% | 50%
5 | Cc1cc(C)c(C2C(=O)CC(CC3CCN(C(=O)c4ccco4)CC3)C2=O)c(C)c1 (centres unmarked) [Compound T90] | 50% | 100% | 60% | 80% | 60% | 80% | 70% | 40%
6 | Cc1cc(C)c(C2C(=O)CC(CC3CCN(S(=O)(=O)c4ccccc4)CC3)C2=O)c(C)c1 (centres unmarked) [Compound T91] | 60% | 90% | 70% | 50% | 40% | 50% | 40% | 20%
7 | Cc1cc(C)c(C2C(=O)CC(CC3CCN(S(=O)(=O)c4ccc(Cl)cc4)CC3)C2=O)c(C)c1 (centres unmarked) [Compound T92] | 40% | 60% | 30% | 40% | 10% | 20% | 30% | 30%
8 | Cc1cc(C)c(C2C(=O)CC(CC3CCN(S(=O)(=O)C(C)C)CC3)C2=O)c(C)c1 (centres unmarked) [Compound T93] | 90% | 70% | 90% | 60% | 60% | 70% | 60% | 60%
9 | Cc1cc(C)c(C2C(=O)CC(CC3CCN(S(C)(=O)=O)CC3)C2=O)c(C)c1 (centres unmarked) [Compound T94] | 80% | 100% | 90% | 90% | 90% | 90% | 100% | 90%
10 | CCS(=O)(=O)N1CCC(CC2CC(=O)C(c3c(C)cc(C)cc3C)C2=O)CC1 (centres unmarked) [Compound T95] | 60% | 100% | 100% | 70% | 90% | 100% | 90% | 90%
